The text below walks through data of ChEMBL document CHEMBL5244231, “Total synthesis, chemical modification and structure-activity relationship of bufadienolides” (Eur J Med Chem, 2020).

The target of experiment [1] is Sodium/potassium-transporting ATPase. The experiment in a line: Inhibition of NA+/K+ ATPase (unknown origin) activity. Format: protein-complex assay, Homo sapiens.
Experiment [2] shares this target. As to the kind of experiment: Inhibition of NA+/K+ ATPase (unknown origin) activity assessed as inhibition constant. It counts as protein-complex assay, Homo sapiens.
Experiment [3] relates to DU-145. The experiment in a line: Antiproliferative activity against human DU-145 cells assessed as cell growth inhibition. It counts as functional, cell-based.
Experiment [4] relates to PC-3. The experiment in a line: Antiproliferative activity against human PC-3 cells assessed as cell growth inhibition. It counts as functional, cell-based.
The test system of experiment [5] is LNCaP. The experiment in a line: Antiproliferative activity against human LNCaP cells assessed as cell growth inhibition. Format: functional, cell-based.
Experiment [6] relates to HeLa. The experiment in a line: Antiproliferative activity against human HeLa cells assessed as cell growth inhibition incubated for 72 hrs by MTT assay. Format: functional, cell-based.
Experiment [7] concerns A549. The experiment in a line: Antiproliferative activity against human A549 cells assessed as cell growth inhibition incubated for 72 hrs by MTT assay. Format: functional, cell-based. To be noted: A549, 72 h. On the technique in general: Formazan colour is commonly taken as a measure of viable cells.
Experiment [8] deals with HeLa. As to the kind of experiment: Antiproliferative activity against human HeLa cells assessed as cell growth inhibition by MTT assay. Format: functional, cell-based.
The subject of experiment [9] is HepG2. The experiment in a line: Antiproliferative activity against human HepG2 cells assessed as cell growth inhibition by MTT assay. Format: functional, cell-based.
Experiment [10] relates to Daudi. As to the kind of experiment: Antiproliferative activity against human Daudi cells assessed as cell growth inhibition by MTT assay. It counts as functional, cell-based.
Experiment [11] deals with MV4-11. The experiment in a line: Antiproliferative activity against human MV4-11 cells assessed as cell growth inhibition by MTT assay. It counts as functional, cell-based.
Experiment [12] concerns Jurkat. As to the kind of experiment: Antiproliferative activity against human Jurkat cells assessed as cell growth inhibition by MTT assay. Format: functional, cell-based.
Experiment [13] deals with HT-1080. The experiment in a line: Antiproliferative activity against human HT-1080 cells assessed as cell growth inhibition by MTT assay. Format: functional, cell-based.
Experiment [14] has as its system PC-3. As to the kind of experiment: Antiproliferative activity against human PC-3 cells assessed as cell growth inhibition by MTT assay. Format: functional, cell-based.
Experiment [15] relates to AGS. As to the kind of experiment: Antiproliferative activity against human AGS cells assessed as cell growth inhibition by MTT assay. Format: functional, cell-based.
The test system of experiment [16] is MCF7. The experiment in a line: Antiproliferative activity against human MCF7 cells assessed as cell growth inhibition by MTT assay. It counts as functional, cell-based.
Experiment [17] has as its system NCI-H2228. The experiment in a line: Antiproliferative activity against human NCI-H2228 cells assessed as cell growth inhibition by MTT assay. Format: functional, cell-based.
For experiment [18], the system named is MV4-11. As to the kind of experiment: Antitumor activity in human MV4-11 cells xenografted in mouse assessed as tumor growth inhibition at 2 mg/kg, iv administered every other day for 21 days relative to control. Format: functional. To be noted: MV4-11, 504 h, time 21 day. For orientation: In xenograft studies the graft and the host belong to different species.

Experiment [19] has as its system MV4-11. The experiment in a line: Antitumor activity in human MV4-11 cells xenografted in mouse assessed as tumor growth inhibition at 4 mg/kg, IG administered every other day for 21 days relative to control. It counts as functional. The conditions noted are these: MV4-11, po, 504 h, time 21 day.
Experiment [20] addresses T1, Androgen receptor (Homo sapiens, UniProt P10275).
T1 sequence (P10275 whole entry): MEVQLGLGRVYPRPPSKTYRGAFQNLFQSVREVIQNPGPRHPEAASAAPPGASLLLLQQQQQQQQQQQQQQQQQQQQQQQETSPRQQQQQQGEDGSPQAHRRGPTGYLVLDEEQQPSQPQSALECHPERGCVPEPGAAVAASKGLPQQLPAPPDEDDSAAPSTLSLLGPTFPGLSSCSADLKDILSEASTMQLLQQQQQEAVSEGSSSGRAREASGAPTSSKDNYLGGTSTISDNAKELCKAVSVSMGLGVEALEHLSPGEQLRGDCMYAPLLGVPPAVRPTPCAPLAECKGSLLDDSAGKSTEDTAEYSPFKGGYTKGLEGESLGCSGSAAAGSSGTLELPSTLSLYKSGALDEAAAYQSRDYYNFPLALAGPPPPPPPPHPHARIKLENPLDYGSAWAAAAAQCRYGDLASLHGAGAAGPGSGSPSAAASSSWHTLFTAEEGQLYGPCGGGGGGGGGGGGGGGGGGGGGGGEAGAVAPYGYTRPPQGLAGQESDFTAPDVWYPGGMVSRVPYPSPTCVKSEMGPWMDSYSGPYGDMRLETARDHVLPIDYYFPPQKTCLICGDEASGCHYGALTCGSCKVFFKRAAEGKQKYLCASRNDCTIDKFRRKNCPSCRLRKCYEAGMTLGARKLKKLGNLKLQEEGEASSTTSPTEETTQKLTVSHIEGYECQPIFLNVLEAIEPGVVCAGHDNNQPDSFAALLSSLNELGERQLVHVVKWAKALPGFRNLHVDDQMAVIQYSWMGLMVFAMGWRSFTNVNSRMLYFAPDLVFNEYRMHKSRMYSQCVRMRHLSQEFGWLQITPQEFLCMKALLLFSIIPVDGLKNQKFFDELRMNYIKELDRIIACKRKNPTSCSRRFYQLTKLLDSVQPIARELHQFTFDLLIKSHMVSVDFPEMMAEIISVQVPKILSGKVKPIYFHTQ
The experiment in a line: Binding affinity to AR (unknown origin) incubated for 4 hrs by fluorescence polarization assay.

The test system of experiment [21] is LNCaP. The experiment in a line: Antiproliferative activity against human LNCaP cells assessed as cell growth inhibition incubated for 48 hrs by MTT assay. Format: functional, cell-based.
Experiment [22] concerns PC-3. The experiment in a line: Antiproliferative activity against human PC-3 cells assessed as cell growth inhibition incubated for 48 hrs by MTT assay. The conditions noted are these: PC-3, 48 h. It counts as functional, cell-based.

By IC50 is commonly meant the concentration that inhibits the measured activity by half. As a reminder, the Ki is a dissociation constant, usually derived from enzyme kinetics or from competition with a known ligand. The term inhibition in vivo denotes how much of the control response was suppressed.

Take `C[C@]12CC[C@H](O)C[C@H]1CC[C@H]1C3=CC[C@H](c4ccc(=S)oc4)[C@@]3(C)CC[C@@H]12`: the IC50 in [1] worked out at 35800 nM.
In the case of `CN(C)C(=O)/C=C/C1=CO[C@]23CCC1[C@@]2(C)CC[C@H]1[C@H]3CC[C@@H]2C[C@@H](O)CC[C@@]21C`, the Ki in experiment [2] was found to be 70000 nM. In addition, the half-inhibitory concentration (IC50) in experiment [3], in experiment [4] and in experiment [5] was 10000 nM throughout.
On to `C[C@]12CC[C@H](OC(=O)C3CCNCC3)C[C@H]1CC[C@@H]1[C@@H]2CC[C@]2(C)[C@@H](c3ccc(=O)oc3)CC[C@]12O`, for which the concentration for half-maximal inhibition (IC50) in experiment [6] came to 0.76 nM; in experiment [7], 0.34 nM.
Take `C[C@]12CC[C@H](OC(=O)NC3CCNCC3)C[C@H]1CC[C@@H]1[C@@H]2CC[C@]2(C)[C@@H](c3ccc(=O)oc3)CC[C@]12O`: the IC50 in experiment [8], in [9], in [10], in experiment [11], in experiment [12] and in [13] was 0.3 nM throughout. The half-inhibitory concentration (IC50) in experiment [14], in experiment [15], in experiment [16] and in experiment [17] was 0.3 nM each time. In addition, the inhibition in vivo at 2 mg/kg in experiment [18] was 100%. Further, in experiment [19], the inhibition in vivo at 4 mg/kg stood at 100%.
`C[C@]12CC[C@H](OC(=O)N3CCNCC3)C[C@H]1CC[C@@H]1[C@@H]2CC[C@]2(C)[C@@H](c3ccc(=O)oc3)CC[C@]12O`: the IC50 in [8] stood at 0.77 nM.
For `C[C@]12CC[C@H](O)CC1CCC1C3=CC[C@H](c4ccc(=O)oc4)[C@@]3(C)CCC12` (some centres undefined), the IC50 in [20] was greater than 50000 nM.
With `C[C@]12CC[C@H](O)CC1CCC1=C3CC[C@H](c4ccc(=O)oc4)[C@@]3(C)CCC12` (some centres undefined), the 50% inhibitory concentration (IC50) in experiment [20] was greater than 50000 nM; in [21] it was 6800 nM; in experiment [22] it was 16400 nM; in experiment [1], 5600 nM.
Consider `C[C@]12CC[C@H](O)C[C@H]1CC[C@@H]1[C@@H]2CC[C@]2(C)[C@@H](c3ccc(=O)[nH]c3)CC[C@]12O`, for which the inhibition constant (Ki) in experiment [2] stood at 70000 nM. The IC50 in experiment [3], in experiment [4] and in [5] was 10000 nM throughout.
